How the values were obtained:
[1] = tested on: MDA-MB-468 cells; assay: MTS cell viability assay, MDA-MB-468; assay type: cell-based, human; conditions: for IC50: Homo sapiens, MDA-MB-468, triple-negative breast cancer cell line, 48 h exposure, MTS, read-out: IC50 ± SD, MDA-MB-468
Excerpt: (§1) Our research group is extensively involved in studying the role of vacuolar (H^+)-ATPase in breast as well as ovarian cancer cell lines. We examined the antiproliferative activity of the novel bisbenzimidazole derivatives (2a–e) in selected human breast cancer cell lines, MDA-MB-231 (ATCC, HTB-26), MDA-MB-468 (ATCC, HTB-132), MCF-7 (ATCC, HTB-22), and the normal breast epithelial cell line, MCF10A. We also used the cisplatin-sensitive A2780, PA-1 (ATCC, CRL 1572), and the cisplatin-resistant Cis-A2780 ovarian cancer cell lines. A potent V-ATPase inhibitor, Bafilomycin A1 (Baf A1), was used as the positive control. We employed the CellTiter 96 AQueous One solution cell proliferation assay (MTS; Promega) to measure the in vitro cell viability of the cells.
(§2) We studied the antiproliferative activity of an initial hit (compound V), and bisbenzimidazole analogs 2a–e in the selected human breast cancer cell lines MDA-MB-231 (ATCC, HTB-26), MDA-MB-468 (ATCC, HTB-132), MCF-7 (ATCC, HTB-22) and the normal breast epithelial cell line, MCF10A, and the ovarian cancer cell lines, A2780, Cis-A2780, and PA-1 (ATCC, CRL 1572). Human breast cancer cell lines and the human ovarian cancer cell line (PA-1) were purchased from ATCC (American Type Culture Collection, Manassas, VA, USA). The cisplatin-sensitive human ovarian carcinoma cell line, A2780, was obtained from Sigma-Aldrich. The cisplatin-resistant human ovarian cell line, Cis-A2780, was produced in our laboratory, as described in the literature. MDA-MB-231, MDA-MB-468, MCF7, and PA-1 were cultured in the MEM medium (Gibco—Life Technologies, Carlsbad, CA, USA). For the MCF-7 cell line, a final concentration of 0.01 mg/mL human recombinant insulin was added to the media. The normal breast epithelial cell line, MCF-10A, was cultured in complete MEBM (Lonza/Clonetics, Walkersville, MD, USA), as recommended by ATCC. A2780, Cis-A2780 cell lines were cultured in RPMI 1640 medium (Invitrogen, Carlsbad, CA, USA). All media were supplemented with 10% (v/v) heat-inactivated fetal bovine serum (Biowest LLC, Riverside, MO, USA), 100 U/mL penicillin G and 100 U/mL streptomycin (Sigma Aldrich, St. Louis, MO, USA). Cultures were maintained at 37 °C in a humidified atmosphere containing 5% CO2 and were passaged by trypsinization after reaching 80–90% confluence.
(§3) CellTiter 96 AQueous One Solution cell proliferation assay (MTS) was used to measure the in vitro cell viability of cells, and the MTS purchased from Promega (Madison, WI, USA). Cells (5 × 10^3) were seeded into each well of 96-well plates and incubated overnight. Dimethyl Sulfoxide (DMSO) stock solutions of the compounds (V, 2a–e) were diluted in corresponding media and exposed to different concentrations for 48 h. All three independent experiments were performed in quadruplicates. Untreated cells were used as a negative control and data were presented as the mean ± standard deviation (S.D.). The absorbances at 492 nm were measured using a Microplate Reader (Synergy HT, Biotek Instruments, Winooski, VT, USA). The compound concentration that inhibited cell growth by 50% of the untreated control (IC50) was calculated from the dose response curves constructed by plotting percentages of cell viability versus drug concentrations using nonlinear regression analysis by GraphPad Prism Software 7 (GraphPad Software, San Diego, CA, USA).

[2] = tested on: MDA-MB-231 cells; assay: MTS cell viability assay, MDA-MB-231; assay type: cell-based; conditions: Homo sapiens, breast cancer cell line, 48 h exposure, read-out: IC50 ± SD, MDA-MB-231
Excerpt: as §1, §2, §3

[3] = tested on: MCF10A cells; assay: MTS cell viability assay, MCF10A normal breast epithelial cells; assay type: cell-based; conditions: Homo sapiens, MCF-10A, normal breast epithelial cell line, 48 h exposure, read-out: IC50 ± SD, MCF10A
Excerpt: as §1, §2, §3

[4] = tested on: A2780 cells; assay: MTS cell viability assay, A2780; assay type: cell-based; conditions: Homo sapiens, cisplatin-sensitive ovarian cancer cell line, 48 h exposure, read-out: IC50 ± SD, A2780
Excerpt: as §1, §2, §3

[5] = tested on: Cis-A2780 cells; assay: MTS cell viability assay, Cis-A2780; assay type: cell-based; conditions: Homo sapiens, cisplatin-resistant ovarian cancer cell line, 48 h exposure, read-out: IC50 ± SD, Cis-A2780
Excerpt: as §1, §2, §3

[6] = tested on: PA-1 cells; assay: MTS cell viability assay, PA-1; assay type: cell-based; conditions: Homo sapiens, cisplatin-sensitive ovarian cancer cell line, 48 h exposure, read-out: IC50 ± SD, PA-1
Excerpt: as §1, §2, §3

[7] = tested on: MCF7 cells; assay: MTS cell viability assay, MCF7; assay type: cell-based; conditions: Homo sapiens, breast cancer cell line, 48 h exposure, read-out: IC50 ± SD, MCF7
Excerpt: as §1, §2, §3

[8] = tested on: V-ATPase; assay: Proton pump activity, acridine orange fluorescence quenching in MDA-MB-231 cells; assay type: cell-based, human; conditions: 20 min incubation, relative to untreated control
Excerpt: Since our hit compound (V) has been identified by the literature known V-ATPases, we hypothesized that these newly synthesized bisbenzimidazole derivatives (2a–e) will work as proton pump inhibitors (PPIs). To neutralize the acidic microenvironment, PPIs have been used to target the V-ATPase pumps present on the cell membrane. […] Therefore, we selected efficacious anticancer agents for the proton pump activity. We performed the standard proton pump activity using the acridine orange (AO) fluorescence quenching method. We selected two highly efficacious compounds (2d and 2e) and our initial hit (V) for proton pump activity. Baf A1 is a known V-ATPase inhibitor and is used as a positive control. The proton pump activity of cells was measured as a decrease in the fluorescence intensity per min. The activity of cells in the presence of Baf A1 and the potent compounds (V, 2d, and 2e) was calculated as a percentage of the untreated control. The values represented are mean values of duplicate measurements (Figure 10).
The proton pump activity was assessed by using the AO fluorescence quenching method. Bafilomycin A1 (Baf A1), AO, and nigericin were purchased from Sigma-Aldrich. Hank’s Balanced Salt Solution (HBSS) was purchased from Gibco-Life Technologies (Carlsbad, CA, USA). Human breast cancer MDA-MB-231 (ATCC, HTB-26) cells were washed twice with Hank’s Balanced Salt Solution (HBSS). The cells were re-suspended at a density of 5 × 10^6 cells per mL in the same buffer and placed on ice. H^+ uptake was initiated by the addition of MDA-MB-231 cells (10 μL; […]) to pre-warmed HBSS (2.4 mL) containing AO (6 μL; 30 μM) and placed in a cuvette. AO fluorescence was measured at an excitation wavelength of 495 nm and an emission wavelength of 540 nm using the LS-50B Luminescence Spectrometer (Perkin Elmer, Software: FL WinLab, Version 4.00.03). Nigericin (6 μL; 6 μM) was added to collapse the pH gradient and unquench the AO fluorescence (See Supplementary Figure S1: 1a and 1b). […] A decrease in the fluorescence intensities per min of Baf A1 and the potent compounds (V, 2d, and 2e) was calculated and is expressed as a percentage of the control (mean ± SD of two independent experiments) (Figure 10).
Figure 10 Effect of V-ATPase inhibitors on proton pump activity. Cells (MDA-MB-231) were subjected to acridine orange (AO) fluorescence quenching assay in the presence and absence of Baf A1 (1 μM) and potent compounds (V, 2d, and 2e; 10 μM). Fluorescence intensity at an excitation of 495 nm and an emission of 540 nm was quantified. Decrease in fluorescence intensity per min was calculated as percentage relative to control (mean ± SD; n = 2).

SMILES | IC50 [1] | IC50 [2] | IC50 [3] | IC50 [4] | IC50 [5] | IC50 [6] | melting point | IC50 [7] | inhibition of the H^+-ATPase activity ([8]; 10 μM) | times less toxic, MCF10A versus MDA-MB-468 ([1]; ratio of IC50 in normal MCF10A cells to IC50 in MDA-MB-468 cells) | inhibition of the H^+-ATPase activity ([8]; 1 μM)
CN(C)CCOc1ccc(-c2nc3ccc(-c4nc5ccc(N6CCN(C)CC6)cc5[nH]4)cc3[nH]2)cc1 [Compound 2c, N,N-Dimethyl-2-(4-(6-(4-methylpiperazin-1-yl)-1H,3'H-[2,5'-bibenzo[d]imidazol]-2'-yl)phenoxy)ethanamine] | 1170 ± 360 nM | 750 ± 300 nM | 810 ± 100 nM | 12.9 ± 0.42 µM | 10.7 ± 0.22 µM | 7.78 ± 0.81 µM | 197 to 198 °C | – | – | – | –
CCOc1ccc(-c2nc3cc(-c4nc5cc(N6CCN(C)CC6)ccc5[nH]4)ccc3[nH]2)cc1 [Compound V] | 720 ± 80 nM | 1020 ± 80 nM | 1140 ± 130 nM | 3.87 ± 0.09 µM | 3.95 ± 0.33 µM | 1.7 ± 0.21 µM | – | 9.33 ± 0.69 µM | 30% | – | –
CN(C)CCCOc1ccc(-c2nc3ccc(-c4nc5ccc(N6CCN(C)CC6)cc5[nH]4)cc3[nH]2)cc1 [Compound 2b, N,N-Dimethyl-3-(4-(6-(4-methylpiperazin-1-yl)-1H,3'H-[2,5'-bibenzo[d]imidazol]-2'-yl)phenoxy)propan-1-amine] | 5830 ± 230 nM | 4770 ± 430 nM | 2950 ± 150 nM | 11.8 ± 0.01 µM | 12.34 ± 0.02 µM | 5.83 ± 0.07 µM | 171 to 172 °C | 13.5 ± 2.14 µM | – | – | –
CN1CCC(Oc2ccc(-c3nc4ccc(-c5nc6ccc(N7CCN(C)CC7)cc6[nH]5)cc4[nH]3)cc2)CC1 [Compound 2a, 6-(4-Methylpiperazin-1-yl)-2'-(4-((1-methylpiperidin-4-yl)oxy)phenyl)-1H,3'H-2,5'-bibenzo[d]imidazole] | 13400 ± 330 nM | 17600 ± 190 nM | 13400 ± 370 nM | 26.5 ± 1.44 µM | 25.2 ± 0.32 µM | – | 165 to 166 °C | 49.3 ± 2.76 µM | – | – | –
COCCOc1ccc(-c2nc3ccc(-c4nc5ccc(N6CCN(C)CC6)cc5[nH]4)cc3[nH]2)cc1 [Compound 2d, 2'-(4-(2-Methoxyethoxy)phenyl)-6-(4-methylpiperazin-1-yl)-1H,3'H-2,5'-bibenzo[d]imidazole] | 560 ± 50 nM | 2440 ± 330 nM | 1550 ± 40 nM | 1.97 ± 0.19 µM | 3.03 ± 0.18 µM | 3.09 ± 0.03 µM | 208 to 209 °C | 22 ± 3.9 µM | 14% | – | –
CN1CCN(c2ccc3nc(-c4ccc5nc(-c6ccc(OCCC(C)(C)C)cc6)[nH]c5c4)[nH]c3c2)CC1 [Compound 2e, 2'-(4-(3,3-Dimethylbutoxy)phenyl)-6-(4-methylpiperazin-1-yl)-1H,3'H-2,5'-bibenzo[d]imidazole] | 40 ± 20 nM | 1580 ± 50 nM | 1620 ± 140 nM | 2.77 ± 0.05 µM | 1.34 ± 0.14 µM | 2.87 ± 0.15 µM | 247 to 248 °C | 2.02 ± 0.12 µM | 42% | ~40 times | –
CO/C1=C\C(C)=C\[C@@H](C)[C@@H](O)[C@@H](C)C/C(C)=C/C=C/[C@H](OC)[C@@H]([C@@H](C)[C@@H](O)[C@H](C)[C@@]2(O)C[C@@H](O)[C@H](C)[C@@H](C(C)C)O2)OC1=O [Baf A1, Bafilomycin A1, reference compound] | – | 26 ± 20 nM | 36 ± 40 nM | – | 0.008 ± 0.01 µM | – | – | – | – | – | 25%

Reference: article PMC6151825, “Identification of Novel Bisbenzimidazole Derivatives as Anticancer Vacuolar (H^+)-ATPase Inhibitors” (Molecules : A Journal of Synthetic Chemistry and Natural …, 2017)
